How the values were obtained:
IDH1R132H_D279N cis = biological target: T1, IDH1R132H_D279N cis (Homo sapiens, UniProt O75874, D279N/R132H); test: 2-HG cell-based inhibition assay, U87MG IDH1R132H_D279N cis; conditions: Cell line construct U87MG IDH1R132H_D279N cis; 2-HG by LC-MS
T1 construct: expressed in transfected cells; host or cells: U-87 MG (ATCC HTB-14)
Procedure: (§1) Compounds and Formulation. […] DMSO preps are further diluted with cell culture media prior to addition in the assay.
(§2) Cell lines. U-87 MG cells (ATCC, HTB-14) are cultured and assayed in MEM (Gibco, 11095) with 2 mM GlutaMAX (Gibco, 35050), 1 mM Pyruvate (Gibco, 11360), 0.1 mM NEAA ((Non-essential amino acid) Gibco, 11140) and 10% dialyzed FBS (Fetal bovine serum) (Gibco, 26400). Ba/F3 cells (DSMZ, ACC 300) are cultured and assayed in RPMI 1640 (Gibco, 22400) with 10% heat inactivated FBS (Gibco, 10082-147) and 10 ng/ml mouse IL3 (R&D systems, 403-ML-025).
(§3) Cell-based inhibition assays. Cell-based assays are performed by measuring 2-HG in either U-87 MG cells or Ba/F3 cells in which IDH mutations are expressed.
(§4) DNA constructs encoding IDH1 mutations are introduced into U-87 MG cells using transfection (Promega FuGENE HD, E2311) or lentiviral transduction, and the IDH-mutant expressing cell lines are selected using blasticidin (5 μg/ml) or puromycin (1 μg/ml). […]
(§5) LC-MS metabolite analysis of conditioned media and cell lysates. The effect of inhibitors on the concentrations of 2-HG are determined by liquid chromatography-mass spectrometry (LC-MS) analysis of cell lysates or conditioned media using either a derivatization method or an ion-pairing method as described below. […]

IDH1R132L_G289D cis = biological target: T2, IDH1R132L_G289D cis (Homo sapiens, UniProt O75874, G289D/R132L); test: 2-HG cell-based inhibition assay, U87MG IDH1R132L_G289D cis; conditions: Cell line construct U87MG IDH1R132L_G289D cis; 2-HG by LC-MS
T2 construct: expressed in transfected cells; host or cells: U-87 MG (ATCC HTB-14)
T2 sequence (O75874 whole entry R132L/G289D): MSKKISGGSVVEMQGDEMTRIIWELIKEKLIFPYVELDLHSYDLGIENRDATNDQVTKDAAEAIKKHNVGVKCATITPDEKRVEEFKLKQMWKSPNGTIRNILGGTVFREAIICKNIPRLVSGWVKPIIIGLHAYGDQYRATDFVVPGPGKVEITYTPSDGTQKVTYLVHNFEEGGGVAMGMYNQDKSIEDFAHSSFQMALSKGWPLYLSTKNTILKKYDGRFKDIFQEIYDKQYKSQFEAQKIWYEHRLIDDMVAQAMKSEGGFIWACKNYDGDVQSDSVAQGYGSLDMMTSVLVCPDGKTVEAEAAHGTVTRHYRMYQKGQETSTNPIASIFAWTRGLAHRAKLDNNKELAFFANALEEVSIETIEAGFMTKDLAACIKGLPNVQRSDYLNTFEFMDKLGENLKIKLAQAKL
Procedure: as §1, §2, §3, §4, §5

R132H mutant IDH1 [1] = biological target: T3, R132H mutant IDH1 (Homo sapiens, UniProt O75874, R132H); test: 2-HG cell-based inhibition assay, Ba/F3 R132H; conditions: Cell line construct Ba/F3 R132H; 2-HG in conditioned media by LC-MS
T3 construct: myc; expressed in transfected cells; host or cells: Ba/F3 (DSMZ ACC 300), stably transfected
T3 sequence (O75874 whole entry R132H): as the sequence (O75874 whole entry R132L/G289D) above, with L132H, D289G counted along it
Procedure: as §1, §3
Ba/F3 cells are transfected with DNA constructs encoding IDH1R132H-myc, IDH1R132H_S280E-myc, or IDH1R132C_S280E-myc constructs using NEON Transfection system (Life Technologies, MPK10025) and isolated using Puromycin (2 μg/mL) or Blasticidin (10 μg/mL). Stably transfected lines are used for inhibitor assays. […] Cells are treated with serial dilutions of the desired compounds in standard growth media. Plates are incubated in a mammalian cell culture incubator (humidified, 37° C., 5% CO2) for the desired time (72 or 96 hours). Following the incubation period, conditioned media from each well is collected for 2-HG analysis by LC-MS.
LC-MS metabolite analysis of conditioned media and cell lysates. The effect of inhibitors on the concentrations of 2-HG are determined by liquid chromatography-mass spectrometry (LC-MS) analysis of cell lysates or conditioned media using either a derivatization method or an ion-pairing method as described below.
For the derivatization LC-MS method, calibration curves are prepared by spiking 2-HG and α-KG into cell culture media and cell lysis buffer respectively. […]

IDH1R132C_H315D cis = biological target: T4, IDH1R132C_H315D cis (Homo sapiens, UniProt O75874, H315D/R132C); test: 2-HG cell-based inhibition assay, U87MG IDH1R132C_H315D cis; conditions: Cell line construct U87MG IDH1R132C_H315D cis; 2-HG by LC-MS
T4 construct: expressed in transfected cells; host or cells: U-87 MG (ATCC HTB-14)
T4 sequence (O75874 whole entry R132C/H315D): as the sequence (O75874 whole entry R132L/G289D) above, with L132C, D289G, H315D counted along it
Procedure: as §1, §2, §3, §4, §5

R132H_S280F mutant IDH1 [2] = biological target: T5, R132H_S280F mutant IDH1 (Homo sapiens, UniProt O75874, R132H/S280F); test: 2-HG cell-based inhibition assay, U87MG R132H_S280F; conditions: Cell line construct U87MG R132H_S280F; 2-HG by LC-MS
T5 construct: myc; expressed in transfected cells; host or cells: Ba/F3 (DSMZ ACC 300), stably transfected
T5 sequence (O75874 whole entry R132H/S280F): as the sequence (O75874 whole entry R132L/G289D) above, with L132H, S280F, D289G counted along it
Procedure: as §1, §2, §3, §4, §5

IDH1R132H_R119P cis = biological target: T6, IDH1R132H_R119P cis (Homo sapiens, UniProt O75874, R119P/R132H); test: 2-HG cell-based inhibition assay, U87MG IDH1R132H_R119P cis; conditions: Cell line construct U87MG IDH1R132H_R119P cis; 2-HG by LC-MS
T6 construct: expressed in transfected cells; host or cells: U-87 MG (ATCC HTB-14)
T6 sequence (O75874 whole entry R119P/R132H): as the sequence (O75874 whole entry R132L/G289D) above, with R119P, L132H, D289G counted along it
Procedure: as §1, §2, §3, §4, §5

IDH1R132C_G131A cis = biological target: T7, IDH1R132C_G131A cis (Homo sapiens, UniProt O75874, G131A/R132C); test: 2-HG cell-based inhibition assay, U87MG IDH1R132C_G131A cis; conditions: Cell line construct U87MG IDH1R132C_G131A cis; 2-HG by LC-MS
T7 construct: expressed in transfected cells; host or cells: U-87 MG (ATCC HTB-14)
T7 sequence (O75874 whole entry G131A/R132C): as the sequence (O75874 whole entry R132L/G289D) above, with G131A, L132C, D289G counted along it
Procedure: as §1, §2, §3, §4, §5

R132C_S280F mutant IDH1 [3] = biological target: T8, R132C_S280F mutant IDH1 (Homo sapiens, UniProt O75874, R132C/S280F); test: 2-HG cell-based inhibition assay, Ba/F3 R132C_S280F; conditions: Cell line construct Ba/F3 R132C_S280F; 2-HG in conditioned media by LC-MS
T8 construct: myc; expressed in transfected cells; host or cells: Ba/F3 (DSMZ ACC 300), stably transfected
T8 sequence (O75874 whole entry R132C/S280F): as the sequence (O75874 whole entry R132L/G289D) above, with L132C, S280F, D289G counted along it

R132C_S280F mutant IDH1 [4] = biological target: T8, R132C_S280F mutant IDH1; test: 2-HG cell-based inhibition assay, U87MG R132C_S280F; conditions: Cell line construct U87MG R132C_S280F; 2-HG by LC-MS
Procedure: as §1, §2, §3, §4, §5

R132H mutant IDH1 [5] = biological target: T3, R132H mutant IDH1; test: 2-HG cell-based inhibition assay, U87MG R132H; conditions: Cell line construct U87MG R132H; 2-HG by LC-MS
Procedure: as §1, §2, §3, §4, §5

IDH1R132L_D279N cis = biological target: T9, IDH1R132L_D279N cis (Homo sapiens, UniProt O75874, D279N/R132L); test: 2-HG cell-based inhibition assay, U87MG IDH1R132L_D279N cis; conditions: Cell line construct U87MG IDH1R132L_D279N cis; 2-HG by LC-MS
T9 construct: expressed in transfected cells; host or cells: U-87 MG (ATCC HTB-14)
T9 sequence (O75874 whole entry R132L/D279N): as the sequence (O75874 whole entry R132L/G289D) above, with D279N, D289G counted along it
Procedure: as §1, §2, §3, §4, §5

IDH1R132L_S280F cis = biological target: T10, IDH1R132L_S280F cis (Homo sapiens, UniProt O75874, R132L/S280F); test: 2-HG cell-based inhibition assay, U87MG IDH1R132L_S280F cis; conditions: Cell line construct U87MG IDH1R132L_S280F cis; 2-HG by LC-MS
T10 construct: expressed in transfected cells; host or cells: U-87 MG (ATCC HTB-14)
T10 sequence (O75874 whole entry R132L/S280F): as the sequence (O75874 whole entry R132L/G289D) above, with S280F, D289G counted along it
Procedure: as §1, §2, §3, §4, §5

IDH1R132C_R119P cis = biological target: T11, IDH1R132C_R119P cis (Homo sapiens, UniProt O75874, R119P/R132C); test: 2-HG cell-based inhibition assay, U87MG IDH1R132C_R119P cis; conditions: Cell line construct U87MG IDH1R132C_R119P cis; 2-HG by LC-MS
T11 construct: expressed in transfected cells; host or cells: U-87 MG (ATCC HTB-14)
T11 sequence (O75874 whole entry R119P/R132C): as the sequence (O75874 whole entry R132L/G289D) above, with R119P, L132C, D289G counted along it
Procedure: as §1, §2, §3, §4, §5

IDH1R132C_D279N cis = biological target: T12, IDH1R132C_D279N cis (Homo sapiens, UniProt O75874, D279N/R132C); test: 2-HG cell-based inhibition assay, U87MG IDH1R132C_D279N cis; conditions: Cell line construct U87MG IDH1R132C_D279N cis; 2-HG by LC-MS
T12 construct: expressed in transfected cells; host or cells: U-87 MG (ATCC HTB-14)
T12 sequence (O75874 whole entry R132C/D279N): as the sequence (O75874 whole entry R132L/G289D) above, with L132C, D279N, D289G counted along it
Procedure: as §1, §2, §3, §4, §5

IDH1R132L_H315D cis = biological target: T13, IDH1R132L_H315D cis (Homo sapiens, UniProt O75874, H315D/R132L); test: 2-HG cell-based inhibition assay, U87MG IDH1R132L_H315D cis; conditions: Cell line construct U87MG IDH1R132L_H315D cis; 2-HG by LC-MS
T13 construct: expressed in transfected cells; host or cells: U-87 MG (ATCC HTB-14)
T13 sequence (O75874 whole entry R132L/H315D): as the sequence (O75874 whole entry R132L/G289D) above, with D289G, H315D counted along it
Procedure: as §1, §2, §3, §4, §5

IDH1R132H_H315D cis = biological target: T14, IDH1R132H_H315D cis (Homo sapiens, UniProt O75874, H315D/R132H); test: 2-HG cell-based inhibition assay, U87MG IDH1R132H_H315D cis; conditions: Cell line construct U87MG IDH1R132H_H315D cis; 2-HG by LC-MS
T14 construct: expressed in transfected cells; host or cells: U-87 MG (ATCC HTB-14)
T14 sequence (O75874 whole entry R132H/H315D): as the sequence (O75874 whole entry R132L/G289D) above, with L132H, D289G, H315D counted along it
Procedure: as §1, §2, §3, §4, §5

R132H_S280F mutant IDH1 [6] = biological target: T5, R132H_S280F mutant IDH1; test: 2-HG cell-based inhibition assay, Ba/F3 R132H_S280F; conditions: Cell line construct Ba/F3 R132H_S280F; 2-HG in conditioned media by LC-MS
IDH1R132L_G131A cis = biological target: T15, IDH1R132L_G131A cis (Homo sapiens, UniProt O75874, G131A/R132L); test: 2-HG cell-based inhibition assay, U87MG IDH1R132L_G131A cis; conditions: Cell line construct U87MG IDH1R132L_G131A cis; 2-HG by LC-MS
T15 construct: expressed in transfected cells; host or cells: U-87 MG (ATCC HTB-14)
T15 sequence (O75874 whole entry G131A/R132L): as the sequence (O75874 whole entry R132L/G289D) above, with G131A, D289G counted along it
Procedure: as §1, §2, §3, §4, §5

IDH1R132L_R119P cis = biological target: T16, IDH1R132L_R119P cis (Homo sapiens, UniProt O75874, R119P/R132L); test: 2-HG cell-based inhibition assay, U87MG IDH1R132L_R119P cis; conditions: Cell line construct U87MG IDH1R132L_R119P cis; 2-HG by LC-MS
T16 construct: expressed in transfected cells; host or cells: U-87 MG (ATCC HTB-14)
T16 sequence (O75874 whole entry R119P/R132L): as the sequence (O75874 whole entry R132L/G289D) above, with R119P, D289G counted along it
Procedure: as §1, §2, §3, §4, §5

IDH1R132H_G131A cis = biological target: T17, IDH1R132H_G131A cis (Homo sapiens, UniProt O75874, G131A/R132H); test: 2-HG cell-based inhibition assay, U87MG IDH1R132H_G131A cis; conditions: Cell line construct U87MG IDH1R132H_G131A cis; 2-HG by LC-MS
T17 construct: expressed in transfected cells; host or cells: U-87 MG (ATCC HTB-14)
T17 sequence (O75874 whole entry G131A/R132H): as the sequence (O75874 whole entry R132L/G289D) above, with G131A, L132H, D289G counted along it
Procedure: as §1, §2, §3, §4, §5

IDH1R132C_G289D cis = biological target: T18, IDH1R132C_G289D cis (Homo sapiens, UniProt O75874, G289D/R132C); test: 2-HG cell-based inhibition assay, U87MG IDH1R132C_G289D cis; conditions: Cell line construct U87MG IDH1R132C_G289D cis; 2-HG by LC-MS
T18 construct: expressed in transfected cells; host or cells: U-87 MG (ATCC HTB-14)
T18 sequence (O75874 whole entry R132C/G289D): as the sequence (O75874 whole entry R132L/G289D) above, with L132C counted along it
Procedure: as §1, §2, §3, §4, §5

T1 sequence (O75874 whole entry R132H/D279N): as the sequence (O75874 whole entry R132L/G289D) above, with L132H, D279N, D289G counted along it

IC50 (IDH1R132H_D279N cis): 13.8 nM
IC50 (IDH1R132L_G289D cis): 29.4 nM
IC50 (R132H mutant IDH1 [1]): 0.11 nM
IC50 (IDH1R132C_H315D cis): 1.33 nM
IC50 (R132H_S280F mutant IDH1 [2]): 2.58 nM
IC50 (IDH1R132H_R119P cis): 2.52 nM
IC50 (IDH1R132C_G131A cis): 25.6 nM
IC50 (R132C_S280F mutant IDH1 [3]): 1.53 nM
IC50 (R132C_S280F mutant IDH1 [4]): 12.5 nM
IC50 (R132H mutant IDH1 [5]): 0.32 nM
IC50 (IDH1R132L_D279N cis): 645 nM
IC50 (IDH1R132L_S280F cis): 179 nM
IC50 (IDH1R132C_R119P cis): 10.5 nM
IC50 (IDH1R132C_D279N cis): 102 nM
IC50 (IDH1R132L_H315D cis): 5.07 nM
IC50 (IDH1R132H_H315D cis): 1.49 nM
IC50 (R132H_S280F mutant IDH1 [6]): 1.13 nM
IC50 (IDH1R132L_G131A cis): 64.5 nM
IC50 (IDH1R132L_R119P cis): 89.7 nM
IC50 (IDH1R132H_G131A cis): 5.89 nM
IC50 (IDH1R132C_G289D cis): 23.5 nM
SMILES: C=CC(=O)N1CCN([C@@H](CC2CC2)c2ccc([C@H](C)Nc3ncc4c(n3)N(CC)C(=O)OC4)cc2)CC1 [Compound A, 7-[[(1S)-1-[4-[(1S)-2-cyclopropyl-1-(4-prop-2-enoylpiperazin-1-yl)ethyl]phenyl]ethyl]amino]-1-ethyl-4H-pyrimido[4,5-d][1,3]oxazin-2-one]

Reference: patent US20230071978A1, “METHOD FOR TREATING IDH1 INHIBITOR-RESISTANT SUBJECTS” (Eli Lilly and Company, priority 2020, published 2023)
